Experimental data from patent publication US20100297256A1, “METHODS AND COMPOSITIONS FOR INHIBITING INTEGRINS USING TELLURIUM-CONTAINING COMPOUNDS” (priority 2007, published 2010).

How the values were obtained:
FAK = experiment: Western blot analysis of FAK phosphorylation; format: cell-based, murine
Description: Cell lysates (20 μg) were diluted with an equal volume of 2×SDS (sodium dodecyl sulfate) sample buffer and separated according to size by SDS-PAGE (SDS-polyacrylamide gel electrophoresis). Proteins were transferred to a polyvinylidene difluoride membrane via electroelution by a transfer system (Bio-Rad), blocked for 1 hour by blocking buffer (5% skim milk in PBS with 0.05% Tween 20) and incubated for 2 hours in room temperature or for overnight in 4° C. with primary antibodies diluted in blocking buffer. Membranes were washed several times in PBS with 0.05 Tween (PBS-T) and incubated for 1 hour with horseradish peroxidase-conjugated anti-mouse or anti-rabbit antibodies (diluted 1:10,000). Proteins were detected by ECL Western Blotting Detection Reagents according to the instructions of the manufacturer (PIERCE).

[1] = rats, intravenous and intramuscular administration; cited from earlier work
αVβ3 integrin = experiment: Anti-αVβ3 integrin antibody binding assay; format: cell-based
Description: An anti-αVβ3 integrin mediated cell adhesion kit (Millipore [Chemicon], Temecula, Calif.) was used to determine cells attachment to anti-αVβ3 integrin antibody, in the presence or absence of AS101. Briefly, Vero or BGM cells were mixed with PBS or with AS101 (1-10 μg/ml) and were added to anti-αVβ3 integrin coated 96-well plates, and to a control 96-well plate (containing anti-mouse IgG) in triplicate. The plates were incubated at 37° C., 5% CO2, for 2 hours, and the cells were then stained and extracted according to the kit instructions, using the staining solution and extraction buffer supplied with the kit. Cell concentration was measured by a spectrophotometer at 540 nm.

U937 cells = experiment: Fluorescence-based flow cytometry analysis of cell death; design: species or system human
Excerpt: Fluorescence-based flow cytometry was used to measure the effect of tellurium-containing compounds on chemotherapy-induced cell death. Accumulation of cells in the sub-G1 fraction, increased proportion of annexin V-positive and propidium iodide-positive cells and increased caspase activity were each used as indicators of increased cell death, using standard procedures.

HL-60 cells = experiment: AML chemotherapy resistance assay (XTT cell viability), HL-60; format: cell-based, human
Description: Cell viability was determined using a cell proliferation kit (Roche), which colors viable cells using the tetrazolium salt XTT.
2×10^4 per 200 μl cells were seeded in 96-microwell flat bottom plates. After 24 hours, the tested compound(s) (e.g., AS101, ARA-C, DTNB, anti-VLA-4 antibody) was added, and the cells were incubated overnight with the tested compound(s). The XTT solution was then added and the cells were incubated for 4 hours at 37° C. Cell viability was than evaluated by measuring absorbance at 450 nm using a Microplate Spectrophotometer (Spectra MAX Plus, Molecular Devices).

West Nile Virus (WNV) [2] = experiment: WNV yield assay; format: cell-based; settings: Vero cells, 5 μg/ml 1 hour before inoculation
Description: Vero cells were seeded as described above in 96-well plates. Cells were treated with AS101 and infected with WNV at MOI of 5 PFU/cell. The cells were washed six times with PBS, and fresh medium was added. The virus titer in harvested culture supernatants was determined by a microtitration assay as follows [Colley et al., in Colgan et al., Current Protocols in Immunology, John Wiley & Sons, New York, N.Y., 2003]: 10-fold serial dilutions of supernatants were used to infect Vero cells in 96-well plates. […] Viral titers (expressed as log 10 of TCID50/ml) were calculated according to the Spearman-Karber method [Hierholzer and Killington, in Mahy and Kangro, Virology Methods Manual, Academic Press, San Diego, Calif., 1996].

VLA-4 = target: T1, VLA-4 (Homo sapiens, UniProt P13612); experiment: Western blot analysis of VLA-4 thiols; format: cell-based; settings: U937 cultured on fibronectin
T1 construct: free thiols are present on the integrin VLA-4 in leukemic cells; endogenous in cells; host or cells: U937 leukemic cells
Description: In order to confirm that free thiols are present on the integrin VLA-4 in leukemic cells, and that these are blocked by AS101, U937 leukemic cells cultured on fibronectin or BSA were treated with BMCC (1-biotinamido-4-(4′-[maleimidoethylcyclohexane]-carboxamido)butane), a thiol blocker linked to biotin. Some cultures were treated with AS101. The α and β chains of the VLA-4 (α4β1 integrin) were then immunoprecipitated from the treated cells using either anti-α4 or anti-β1 antibodies and blotted with anti-biotin antibody. The presence of free thiols was indicated by bands observed by anti-biotin blotting. The presence of α4 and β1 chains was determined by blotting with anti-α4 and anti-β1 antibodies.

Akt = experiment: Western blot analysis of Akt; format: cell-based, human
Description: Phosphorylation of Akt was determined by Western blot analysis.

West Nile Virus (WNV) [3] = experiment: Western blot analysis of WNV protein synthesis (WNV-E protein); format: cell-based; settings: Vero cells
Description: Vero cells grown in 6-well plates (2×10^5 cells/well) were harvested and total cell extracts were prepared by suspension in 50 μl of ice-cold lysis buffer containing 50 mM Tris (pH 8.0), 150 mM NaCl, 1% NP-40, 0.1% SDS, 5 mM EDTA, 0.2 mM PMSF, 50 mM NaF, […] sodium vanadate, 5 mg/ml aprotinin and 5 mg/ml leupeptin. Cell lysates were boiled for 5 minutes and electrophoresed on 8% SDS-polyacrylamide gel, and were then transferred to a nitrocellulose membrane which was then incubated consecutively with a monoclonal antibody against the WNV envelope (WNV-E) protein and an anti-β-actin or anti-tubulin monoclonal antibody. The Nitrocellulose membranes were developed using horseradish peroxidase-conjugated secondary antibodies and the ECL detection system (Pierce, Rockford, Ill.). Quantitative evaluation of E protein calibrated against tubulin or β-actin was done by scanning and analysis using the Image-J program (www.//rsb.info.nih.gov/ij).

Bcl2 = experiment: Western blot analysis of Bcl2; format: cell-based, human; settings: AS101 added to ARA-C
Excerpt: The expression of the survival factor Bcl2 was examined via Western blot analysis in U937 cells treated with the chemotherapeutic agent ARA-C.

[4] = B16F10, 5 to 10 minutes incubation
[5] = LAN-1, 5 to 10 minutes incubation
[6] = SVEC4-10, 5 to 10 minutes incubation
[7] = U937 on BSA, AS101 combined with ARA-C
[8] = U937 on fibronectin, AS101 combined with ARA-C
[9] = U937 on fibronectin, agent alone
[10] = HL-60, fibronectin-coated plates, 0.5 or 1 μg/ml AS101

T1 sequence (P13612 34-1032): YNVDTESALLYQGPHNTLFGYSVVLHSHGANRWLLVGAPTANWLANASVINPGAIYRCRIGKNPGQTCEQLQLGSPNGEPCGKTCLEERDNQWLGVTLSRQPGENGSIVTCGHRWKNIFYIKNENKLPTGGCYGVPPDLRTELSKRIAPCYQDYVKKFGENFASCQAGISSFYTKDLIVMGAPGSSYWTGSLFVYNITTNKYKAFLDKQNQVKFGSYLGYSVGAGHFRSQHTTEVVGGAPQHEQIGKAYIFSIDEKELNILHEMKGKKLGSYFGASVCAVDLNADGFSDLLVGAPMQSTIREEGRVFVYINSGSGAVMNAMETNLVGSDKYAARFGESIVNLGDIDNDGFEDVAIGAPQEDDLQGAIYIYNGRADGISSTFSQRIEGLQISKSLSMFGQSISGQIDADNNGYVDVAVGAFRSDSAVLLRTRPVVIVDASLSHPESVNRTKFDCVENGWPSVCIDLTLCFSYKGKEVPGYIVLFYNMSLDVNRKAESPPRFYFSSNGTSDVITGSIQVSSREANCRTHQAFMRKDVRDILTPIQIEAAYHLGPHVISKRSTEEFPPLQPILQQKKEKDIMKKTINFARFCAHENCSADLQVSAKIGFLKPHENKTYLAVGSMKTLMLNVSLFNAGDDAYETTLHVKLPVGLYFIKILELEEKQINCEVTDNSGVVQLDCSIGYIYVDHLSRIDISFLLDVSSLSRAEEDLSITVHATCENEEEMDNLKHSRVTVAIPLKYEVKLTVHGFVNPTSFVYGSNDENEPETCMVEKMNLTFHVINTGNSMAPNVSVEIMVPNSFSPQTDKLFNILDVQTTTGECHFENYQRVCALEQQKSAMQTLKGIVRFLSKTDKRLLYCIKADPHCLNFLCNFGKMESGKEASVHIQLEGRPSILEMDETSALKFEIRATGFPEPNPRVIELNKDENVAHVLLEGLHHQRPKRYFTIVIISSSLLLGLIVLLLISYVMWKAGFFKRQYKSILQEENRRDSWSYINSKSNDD
T1 sequence (P05556 21-798 partner): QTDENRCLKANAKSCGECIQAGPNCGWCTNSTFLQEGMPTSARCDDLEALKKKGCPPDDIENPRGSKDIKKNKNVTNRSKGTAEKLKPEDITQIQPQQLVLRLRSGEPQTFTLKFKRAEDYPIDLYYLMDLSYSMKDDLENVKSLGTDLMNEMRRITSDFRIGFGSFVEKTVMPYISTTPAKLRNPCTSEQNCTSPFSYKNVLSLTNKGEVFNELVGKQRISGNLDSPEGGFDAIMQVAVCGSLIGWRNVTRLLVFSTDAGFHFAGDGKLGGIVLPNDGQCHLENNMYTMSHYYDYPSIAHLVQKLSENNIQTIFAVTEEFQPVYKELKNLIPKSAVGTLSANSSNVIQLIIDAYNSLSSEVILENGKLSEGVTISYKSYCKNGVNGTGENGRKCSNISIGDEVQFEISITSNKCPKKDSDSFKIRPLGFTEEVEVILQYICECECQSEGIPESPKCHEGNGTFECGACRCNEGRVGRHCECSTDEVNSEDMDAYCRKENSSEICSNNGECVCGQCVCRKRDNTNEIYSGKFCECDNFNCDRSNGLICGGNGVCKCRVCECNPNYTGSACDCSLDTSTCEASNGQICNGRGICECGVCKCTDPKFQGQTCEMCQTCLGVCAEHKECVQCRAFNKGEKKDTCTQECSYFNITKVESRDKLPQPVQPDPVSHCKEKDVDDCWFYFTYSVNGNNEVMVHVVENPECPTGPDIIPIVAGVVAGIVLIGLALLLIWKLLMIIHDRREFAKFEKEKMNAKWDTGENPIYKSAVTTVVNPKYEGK

## Cl[TeH]1(Cl)(Cl)OCCO1 [AS101, ammonium trichloro(dioxyethylene-O,O′)tellurate]
FAK; [4]
  ECGS-induced FAK phosphorylation at Y397: inhibition of ECGS-induced FAK phosphorylation at Y397
FAK; [5]
  ECGS-induced FAK phosphorylation at Y397: inhibition of ECGS-induced FAK phosphorylation at Y397
FAK; [6]
  ECGS-induced FAK phosphorylation at Y397: inhibition of ECGS-induced FAK phosphorylation at Y397
[1]
  LD50 relative to the immunologically effective dose: 500-1000 folds
αVβ3 integrin; BGM cells, 10 μg/ml, data not shown
  inhibition of binding of anti-αVβ3 integrin antibody to cells: 64%
αVβ3 integrin; Vero cells, 1-10 μg/ml
  binding of anti-αVβ3 integrin antibody to cells: inhibited the binding of anti-αVβ3 integrin antibody to Vero cells in a dose-dependent manner
U937 cells; U937 on BSA
  caspase-3 activity, ARA-C and AS101 in combination vs ARA-C alone: the same degrees of caspase-3 activity
U937 cells; [7]
  percentage of annexin V-positive and propidium iodide-positive cells: only slightly above the percentage obtained with ARA-C alone
  percentage of cells in the sub-G1 fraction: did not provide significantly different results than ARA-C alone
U937 cells; [8]
  percentage of annexin V-positive and propidium iodide-positive cells: increased the percentage of annexin V-positive and propidium iodide-positive cells considerably
  percentage of cells in the sub-G1 fraction: over 80%
  percentage of cells with high caspase-3 activity: high percentage of cells with increased caspase-3 activity
U937 cells; [9]
  percentage of annexin V-positive and propidium iodide-positive cells: no effect alone
  percentage of cells in the sub-G1 fraction: no effect alone
  percentage of cells with high caspase-3 activity: little or no effect
HL-60 cells; HL-60, BSA-coated or VCAM-1-coated plates
  sensitization to daunorubicin-induced cell death: no visible effect
HL-60 cells; [10]
  sensitization to ARA-C-induced cell death: sensitized HL-60 cells to ARA-C-induced cell death on fibronectin-coated plates
  sensitization to daunorubicin-induced cell death: sensitized HL-60 cells to daunorubicin-induced cell death on fibronectin-coated plates in a dose-dependent manner
West Nile Virus (WNV) [2]; 24 hours post-infection
  decrease in virus yield: 1 log
West Nile Virus (WNV) [2]; 36 hours post-infection
  decrease in virus yield: 2 log
VLA-4
  free thiols on the α chain of VLA-4 (BMCC labelling): eliminated these free thiols
Akt; U937
  total amounts of Akt: remained unchanged
Akt; U937 on fibronectin, dose-dependent
  level of phosphorylated Akt (pAkt): reduced the level of phosphorylated Akt
West Nile Virus (WNV) [3]; 5 μg/ml, 5 and 15 minutes after virus adsorption
  level of cell-bound WNV-E protein (virus attachment): marked reduced the level of WNV-E protein
West Nile Virus (WNV) [3]; 2 and 5 μg/ml, 8 hours after infection
  inhibition of virus protein (WNV-E) expression vs untreated cells: 2-3 fold
Bcl2; U937 on BSA
  expression of Bcl2: no effect
Bcl2; U937 on fibronectin
  expression of Bcl2: did not decrease expression of Bcl2 in cells plated on fibronectin (FN) unless AS101 was added

## O=C1O[Te]23OC(=O)C(O2)C2O[Te]4(OC(=O)C(O4)C1O3)OC2=O [SAS, [TeO4(COCH)2]2]
FAK; [4]
  ECGS-induced FAK phosphorylation at Y397: inhibition of ECGS-induced FAK phosphorylation at Y397
FAK; [5]
  ECGS-induced FAK phosphorylation at Y397: inhibition of ECGS-induced FAK phosphorylation at Y397
FAK; [6]
  ECGS-induced FAK phosphorylation at Y397: inhibition of ECGS-induced FAK phosphorylation at Y397
